In PubChem BioAssay AID179 (DTP/NCI, 2004):
Calls of active or inactive are those of the source.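 Rule for the calls: active = compounds giving half or more protection of infected cells from virus-caused growth loss, again on retest; inactive = the rest.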

Tested on: CEM cells HIV-1 protection, formazan growth assay
Assay: NCI AIDS Antiviral Assay
Conditions: for IC50: measured here: growth of uninfected CEM cells
Summary of the method: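 Category rules: moderately active means at least 50% protection on retest, and confirmed active means 100% protection reproducibly. The underlying data came from a formazan growth assay in HIV-1-infected CEM cells.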

Row | Structure (SMILES) | EC50 [µM] | IC50 [µM] | outcome
1 | Cn1cnc(N2CCCC2)c(C#N)c1=S | > 200 | > 200 | –
2 | COc1ccc(-c2c[se]c(=S)s2)cc1 | > 18.2 | > 18.2 | –
3 | CON1C(=O)C(c2cccs2)=C2SCC=C21 | > 170 | 4.27 | –
4 | CN=C1Nc2ccc(Cl)cc2C(c2ccccc2)=NN1C | > 120 | 93.3 | –
5 | Oc1cccc2cccnc12 | > 1230 | 2.34 | inactive
6 | N#CC(C#N)=C1C(=O)NC(N)=C1C#N | > 200 | > 200 | –
7 | COC1/C=C/OC2(C)Oc3c(C)c(O)c4c(O)c(c(/C=N/N5C(C)CN(Cc6ccccc6C#N)CC5C)c(O)c4c3C2=O)NC(=O)/C(C)=C\C=C\C(C)C(O)C(C)C(O)C(C)C(OC(C)=O)C1C (stereo not given) | > 200 | 7.41 | –
8 | COc1cc2c(cc1OC)-c1cc3cc(OC)c(OC)cc3c(=O)n1CC2 | > 200 | 7.24 | –
9 | CC1Nc2c(ccc3ncccc23)C(=O)N1Nc1ccccc1 (stereo not given) | > 83.2 | 60.3 | –
10 | NC(N)=NS(=O)(=O)c1ccc(Nc2c3ccccc3nc3c(C(=O)NC(CO)(CO)CO)cccc23)cc1 | > 200 | 3.31 | –
11 | S=C1CC(c2ccc(Sc3ccccc3)cc2)=Nc2ccccc2N1 | > 200 | 75.9 | –
12 | CCCCN(CCCC)CC(C(=O)Nc1ccc([N+](=O)[O-])cc1[N+](=O)[O-])/C(C)=N\NC(=S)NN (stereo not given) | > 52.5 | > 52.5 | –
13 | OCCN1CCN(C2=Nc3cccnc3Nc3cscc32)CC1 | > 200 | > 200 | –
14 | CC1(C)OC2C(CO)OC(/N=C(\NC#N)Oc3ccccc3)C2O1 (stereo not given) | > 200 | > 200 | –
15 | O=c1ccn([C@@H]2C[C@H]2CO)c(=O)[nH]1 | – | – | inactive
16 | O=c1[nH]c2cc(Cl)ccc2c(O)c1Cc1c(O)c2ccc(Cl)cc2[nH]c1=O | > 100 | 5.37 | –
17 | O=C1C2C3C=C4c5ccccc5N(c5ccccc5)C4(C2C(=O)N1Cc1ccccc1)C1C(=O)N(Cc2ccccc2)C(=O)C31 (stereo not given) | – | – | inactive
18 | Cc1c(=O)n(O)c2ccccc2[n+]1[O-] | > 200 | > 200 | –
19 | O=C(O)C1CC2C=CCC(C2)C1 (stereo not given) | – | – | inactive

Row | Structure (SMILES) | EC50 [µM] | IC50 [µM] | outcome
20 | CC1=CC(=O)Nc2cncnc2N1 | > 77.6 | > 77.6 | –
21 | CN1Cc2cc(O)c(O)cc2C(O)C1 (stereo not given) | > 200 | 102 | –
22 | O=c1c2ccccc2c(=O)n2n1C1CCC2C1 | > 1100 | > 1100 | –
23 | O=C(Nc1ccccc1)c1c(O)[nH]c(=S)[nH]c1=O | 11.2 | 21.4 | –
24 | CN1C(=O)N(C)C(O)C(Cl)(Cl)C1=O (stereo not given) | > 200 | > 200 | –
25 | CC(C)Oc1c(-c2c(OC(C)C)c(=O)c2=O)c(=O)c1=O | > 200 | > 200 | –
26 | COc1cc(O)c2c(c1)cc(O)c1c(=O)cc(C)oc12 | > 195 | 10.5 | –
27 | CNc1ncnc2c1ncn2C1C=CC(COS(N)(=O)=O)C1 (stereo not given) | > 200 | > 200 | –
28 | C[N+](C)(C)CC(=O)N/N=C(/C=C/c1ccccc1)CC1OC(=O)c2ccccc21 (stereo not given) | > 589 | > 589 | –
29 | N=C1/C(=C/c2ccc(F)cc2)C(=O)N=C2SC=NN12 | > 200 | > 200 | –
30 | O=C(O)c1cc(-c2c3ccc(=O)cc-3oc3cc(O)ccc23)c(C(=O)O)cc1-c1c2ccc(=O)cc-2oc2cc(O)ccc12 | > 200 | > 200 | –
31 | Cc1cc(C)c2c(c1)CC2(Cl)Cl | > 178 | > 178 | –
32 | N#CN=C(N)NC(=O)/C=C/C=C/c1ccc(Cl)cc1 | – | – | inactive
33 | CC(=O)O[C@H]1CCCC[C@H]1c1ccccc1 | > 309 | > 309 | –
34 | CN1C(=O)C2C=C3CCCCC3=CC2N(C)C1=O (stereo not given) | > 200 | > 200 | –
35 | COC(=O)CP1(=O)OC2C(C3CCC2(C)C3(C)C)N1c1cc(C(F)(F)F)cc(C(F)(F)F)c1 (stereo not given) | > 200 | – | –
36 | CC1=C(C(=O)NNC(=O)C[N+](C)(C)C)CC(C(=O)NNC(=O)C[N+](C)(C)C)=C(C)N1 | > 200 | 95.5 | –
37 | C=C[C@@H]1OC(=O)O[C@H]1CO | > 200 | > 200 | –
